Laboratory results published in patent publication US12084443B2, “Process of preparing a PD-1/PD-L1 inhibitor” (Incyte Corporation, priority 2020, dated 2024).

Biological target: T1, PD-1/PD-L1 protein/protein interaction (Homo sapiens, UniProt Q9NZQ7)
T1 construct: Recombinant human PD-L1 protein (19-238) with a His-tag at the C-terminus; purchased AcroBiosystems PD1-H5229 (PD-L1); PD1-H5257 (PD-1)
Assay: PD-1/PD-L1 Homogeneous Time-Resolved Fluorescence (HTRF) binding assay
Settings: recombinant human PD-1 (25-167) Fc tag and PD-L1 (19-238) His-tag, 25° C., PBS pH 7.4
Procedure: Example A. PD-1/PD-L1 Homogeneous Time-Resolved Fluorescence (HTRF) Binding Assay The assays were conducted in a standard black 384-well polystyrene plate with a final volume of 20 μL. Inhibitors were first serially diluted in DMSO and then added to the plate wells before the addition of other reaction components. The final concentration of DMSO in the assay was 1%. The assays were carried out at 25° C. in the PBS buffer (pH 7.4) with 0.05% Tween-20 and 0.1% BSA. Recombinant human PD-L1 protein (19-238) with a His-tag at the C-terminus was purchased from AcroBiosystems (PD1-H5229). Recombinant human PD-1 protein (25-167) with Fc tag at the C-terminus was also purchased from AcroBiosystems (PD1-H5257). PD-L1 and PD-1 proteins were diluted in the assay buffer and 10 μL was added to the plate well. Plates were centrifuged and proteins were preincubated with inhibitors for 40 minutes. The incubation was followed by the addition of 10 μL of HTRF detection buffer supplemented with Europium cryptate-labeled anti-human IgG (PerkinElmer-AD0212) specific for Fc and anti-His antibody conjugated to SureLight®-Allophycocyanin (APC, PerkinElmer-AD0059H). After centrifugation, the plate was incubated at 25° C. for 60 min. before reading on a PHERAstar FS plate reader (665 nm/620 nm ratio). […]

T1 sequence (Q9NZQ7 19-238): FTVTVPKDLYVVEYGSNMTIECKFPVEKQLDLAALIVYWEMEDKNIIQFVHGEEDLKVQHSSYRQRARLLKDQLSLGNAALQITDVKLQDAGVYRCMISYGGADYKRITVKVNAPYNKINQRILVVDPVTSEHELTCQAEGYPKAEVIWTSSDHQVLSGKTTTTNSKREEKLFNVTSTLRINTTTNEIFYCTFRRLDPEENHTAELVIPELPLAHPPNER

Cc1c(Nc2nccc3cc(CN4CC[C@@H](O)C4)cnc23)cccc1-c1cccc(-c2nc3cc(CN4CC[C@@H](C(=O)O)C4)cc(C#N)c3o2)c1C [Compound 1, (R)-1-((7-cyano-2-(3′-((3-(((R)-3-hydroxypyrrolidin-1-yl)methyl)-1,7-naphthyridin-8-yl)amino)-2,2′-dimethyl-[1,1′-biphenyl]-3-yl)benzo[d]oxazol-5-yl)methyl)pyrrolidine-3-carboxylic acid]
IC50: ≤ 10 nM
